Where “and” joins values, the source holds several entries; their conditions need not be identical. Equal values may be shown once. Where a name gives a salt, the structure may show the parent alone.

The IC50 is the point on the concentration scale where inhibition reaches its midpoint. A lower IC50 goes with inhibition by little substance.

One data set relates to HCT-116 colon cancer. In words: Growth of subcutaneous transplanted tumor in nude mice bearing HCT-116 colon cancer.
In another data set the test system is MCF-7-ADR. In words: MTT cytotoxic activity against drug-resistant tumor cell line. It is filed as cell-based, Human. The conditions noted are these: for IC50: NCI/ADR-RES, doxorubicin-resistant human breast cancer cells, 48 hours incubation, MTT, Bliss method. How it is done:
Purpose: Compare differences of cytotoxic activity against drug-resistant tumor cell lines between gemcitabine derivatives (Compounds of examples 1-9 of the present invention) and gemcitabine (known compound, as “comparative example” in the table below).
Materials and Methods: Human breast cancer doxorubicin-resistant cell line MCF-7-ADR was cultured in 1640 medium containing 5% fetal calf serum; gemcitabine and its derivative GI-06 were dissolved in DMSO, frozen preserved at −20° C., and diluted by 1640 medium containing 5% fetal calf serum to the appropriate concentration before they were used. The final concentration of DMSO solution was 0.5%. Activity tests: MCF-7-ADR cells in the logarithmic growth phase were seeded 3×10^3 per well in 96-well culture plates. The medium was changed after incubating for 24 hours by adding test solutions at different concentrations, while the control group was added DMSO medium with concentration of 0.5%, and the cells continued to be incubated for 48 hours. Then the cell activity was assayed by MTT. Inhibition rate (%)=([…](absorbance of the blank control group−absorbance of the administration group)/absorbance of the blank control group)×100%; IC50: calculated by Bliss method.

A further data set has as its system A2780 ovarian cancer. Briefly: Growth of subcutaneous transplanted tumor in nude mice bearing A2780 ovarian cancer. An excerpt: Test sample: GI-06; Positive control: gemcitabine hydrochloride
Experimental animals: nude mice, female, 4-5 weeks old, 40 cases.
Cell lines: A2780 ovarian cancer cell, purchased from Shanghai institute of cell biology.
Grouping: When tumor volume grew to 100 mm^3, nude mice which reached standard were randomly divided into five groups, namely solvent control group, gemcitabine hydrochloride group, GI-06 high, medium, low dosage groups, 6 nude mice in each group.
The administration volume: 0.1 ml/10 g
Frequency of administration: Gemcitabine hydrochloride was respectively adminstered twice in the first and third week (D1, D4, D15, D18), 4 times in total; Each GI-06 dosage group was adminstered once a day, 21 days in total.
Animals were sacrificed on the 22nd day, the tumors were weighed.
Statistical Methods: Excel statistical software package, ANOVA analysis.

[1] abbreviates: 15 mg/kg oral gavage, five consecutive days a week, 10 times in total.
The mark [2] stands for this setting: 160 mg/kg intraperitoneal injection, D1 and D4, twice in total.
[3] abbreviates: 160 mg/kg intraperitoneal injection, D1, D4, D15, D18.
Where [4] appears, read: low dosage 5 mg/kg oral gavage, 12 times in total.
The mark [5] stands for this setting: medium dosage 10 mg/kg oral gavage, 12 times in total.
Setting [6] is: high dosage 12 mg/kg oral gavage once a day, 21 days.
Setting [7] is: low dosage 4 mg/kg oral gavage once a day, 21 days.
The mark [8] stands for this setting: medium dosage 8 mg/kg oral gavage once a day, 21 days.

Description for HCT-116 colon cancer: Purpose: 4 compounds' influence to the growth of subcutaneous transplanted tumor in nude mice bearing HCT-116 colon cancer
Positive control: Gemcitabine hydrochloride.
Experimental animals: Nude mice, female, 4-5 weeks old, 60 cases.
Cell lines: HCT-116 colon cancer cell.
Modeling: Five mice were inoculated by cell suspension before the experiment, after passaging 4 times in nude mice, prepared model by subcutaneous inoculation using the interpolation block tumor masses.
Route of administration: Gemcitabine hydrochloride group was adminstered by intraperitoneal injection, the rest groups were adminstered by oral gavage.
The adminstered volume: 0.1 ml/10 g
Observation time: Consecutive observation for 15 days after administration, tumor volume was measured twice a week. Stop administration at the 15th day.

As to `CC(C)(C)c1cnc(CSc2cnc(NC(=O)CCCCCCCCC(=O)Nc3ccn([C@@H]4O[C@H](CO)[C@@H](O)C4(F)F)c(=O)n3)s2)o1` [GI-09, N-(5-(((5-(t-butyl)oxazol-2-yl)methyl)thio)thiazol-2-yl)-N′-(1-((2R,4R,5R)-3,3-difluoro-4-hydroxy-5-(hydroxymethyl)tetrahydrofuran-2-yl)-2-oxo-1,2-dihydro-pyrimidin-4-yl)sebacamide], in the data set on HCT-116 colon cancer (setting [1]), the “T/C (%) D15” value is given as 43.26%, the “Tumor volume (mm^3) D15” value is 724.50 ± 158.19 mm^3 and the “Weight (g) D15” value is 18.6 ± 1.4 g. Half-maximal inhibition in the data set with MCF-7-ADR (IC50) required 2.66 µM.
On the same counts, the results for `CC(C)(C)c1cnc(CSc2cnc(NC(=O)CCCC(=O)Nc3ccn([C@@H]4O[C@H](CO)[C@@H](O)C4(F)F)c(=O)n3)s2)o1` [GI-04, N-(5-(((5-(t-butyl)oxazol-2-yl)methyl)thio)thiazol-2-yl)-N′-(1-((2R,4R,5R)-3,3-difluoro-4-hydroxy-5-(hydroxymethyl)tetrahydrofuran-2-yl)-2-oxo-1,2-dihydro-pyrimidin-4-yl)glutaramide] are 60.9%, 1008.78 ± 174.29 mm^3, 19.9 ± 1.2 g and 3.15 µM.
As to `CC(C)(C)c1cnc(CSc2cnc(NC(=O)CC(=O)Nc3ccn([C@@H]4O[C@H](CO)[C@@H](O)C4(F)F)c(=O)n3)s2)o1` [GI-02, N-(5-(((5-(t-butyl)oxazol-2-yl)methyl)thio)thiazol-2-yl)-N′-(1-((2R,4R,5R)-3,3-difluoro-4-hydroxy-5-(hydroxymethyl)tetrahydrofuran-2-yl)-2-oxo-1,2-dihydro-pyrimidin-4-yl)malonamide], in the data set with MCF-7-ADR, the half-maximal inhibitory concentration (IC50) was 4.77 µM.
As to `CC(C)(C)c1cnc(CSc2cnc(NC(=O)CCCCCCCC(=O)Nc3ccn([C@@H]4O[C@H](CO)[C@@H](O)C4(F)F)c(=O)n3)s2)o1` [GI-08, N-(5-(((5-(t-butyl)oxazol-2-yl)methyl)thio)thiazol-2-yl)-N′-(1-((2R,4R,5R)-3,3-difluoro-4-hydroxy-5-(hydroxymethyl)tetrahydrofuran-2-yl)-2-oxo-1,2-dihydro-pyrimidin-4-yl)azelamide], in the data set on MCF-7-ADR, the IC50 stood at 3.29 µM.
The compound `CC(C)(C)c1cnc(CSc2cnc(NC(=O)CCCCCCC(=O)Nc3ccn([C@@H]4O[C@H](CO)[C@@H](O)C4(F)F)c(=O)n3)s2)o1` [GI-07, N-(5-(((5-(t-butyl)oxazol-2-yl)methyl)thio)thiazol-2-yl)-N′-(1-((2R,4R,5R)-3,3-difluoro-4-hydroxy-5-(hydroxymethyl)tetrahydrofuran-2-yl)-2-oxo-1,2-dihydro-pyrimidin-4-yl)suberamide] came in with a half-inhibitory concentration (IC50) with MCF-7-ADR of 3.55 µM.
Same read-out and setting: as for `CC(C)(C)c1cnc(CSc2cnc(NC(=O)CCC(=O)Nc3ccn([C@@H]4O[C@H](CO)[C@@H](O)C4(F)F)c(=O)n3)s2)o1` [GI-03, N-(5-(((5-(t-butyl)oxazol-2-yl)methyl)thio)thiazol-2-yl)-N′-(1-((2R,4R,5R)-3,3-difluoro-4-hydroxy-5-(hydroxymethyl)tetrahydrofuran-2-yl)-2-oxo-1,2-dihydro-pyrimidin-4-yl)succinamide], the figure is 6.13 µM.
As to `Nc1ccn([C@@H]2O[C@H](CO)[C@@H](O)C2(F)F)c(=O)n1` [Gemcitabine hydrochloride, reference compound], in the data set on HCT-116 colon cancer (setting [2]), the “Tumor volume (mm^3) D15” value is reported as 99.90 ± 55.92⋆ mm^3 and the “Weight (g) D15” value is 20.0 ± 1.5 g. The “T/C (%) D15” value with HCT-116 colon cancer (160 mg/kg intraperitoneal injection, D1 and D4, twice in total, hydrochloride) came to 5.83%. In addition, the “T/C (%) D15” value in the data set with HCT-116 colon cancer (160 mg/kg intraperitoneal injection, D1 and D4, twice in total, listed as gemcitabine hydrochloride, hydrochloride) was 5.8%. In addition, the “Tumor volume (mm^3) D22” value with A2780 ovarian cancer (setting [3]) is 59.97 ± 72.33^⋆ mm^3.
On to `CC(C)(C)c1cnc(CSc2cnc(NC(=O)C(=O)Nc3ccn([C@@H]4O[C@H](CO)[C@@H](O)C4(F)F)c(=O)n3)s2)o1` [GI-01, N-(5-(((5-(t-butyl)oxazol-2-yl)methyl)thio)thiazol-2-yl)-N′-(1-((2R,4R,5R)-3,3-difluoro-4-hydroxy-5-(hydroxymethyl)tetrahydrofuran-2-yl)-2-oxo-1,2-dihydro-pyrimidin-4-yl)oxamide], for which the IC50 with MCF-7-ADR was 5.56 µM.
Consider `CC(C)(C)c1cnc(CSc2cnc(NC(=O)CCCCC(=O)Nc3ccn([C@@H]4O[C@H](CO)[C@@H](O)C4(F)F)c(=O)n3)s2)o1` [GI-05, N-(5-(((5-(t-butyl)oxazol-2-yl)methyl)thio)thiazol-2-yl)-N′-(1-((2R,4R,5R)-3,3-difluoro-4-hydroxy-5-(hydroxymethyl)tetrahydrofuran-2-yl)-2-oxo-1,2-dihydro-pyrimidin-4-yl)adipamide], for which, in the data set with HCT-116 colon cancer (setting [1]), the “T/C (%) D15” value is listed as 56.14%, the “Tumor volume (mm^3) D15” value is reported as 935.14 ± 130.33 mm^3 and the “Weight (g) D15” value amounted to 18.1 ± 1.2 g. The IC50 in the data set on MCF-7-ADR came out at 2.46 µM.
Regarding `CC(C)(C)c1cnc(CSc2cnc(NC(=O)CCCCCC(=O)Nc3ccn([C@@H]4O[C@H](CO)[C@@H](O)C4(F)F)c(=O)n3)s2)o1` [GI-06, N-(5-(((5-(t-butyl)oxazol-2-yl)methyl)thio)thiazol-2-yl)-N′-(1-((2R,4R,5R)-3,3-difluoro-4-hydroxy-5-(hydroxymethyl)tetrahydrofuran-2-yl)-2-oxo-1,2-dihydro-pyrimidin-4-yl)pimelamide], the “T/C (%) D15” value with HCT-116 colon cancer (setting [1]) was 12% and 12.64%; in the data set on HCT-116 colon cancer (setting [4]), 27% and 27.50%; in the data set on HCT-116 colon cancer (setting [5]), 13% and 13.09%. Also, the “Tumor volume (mm^3) D15” value is 208.14 ± 80.53⋆ mm^3 in the data set with HCT-116 colon cancer (setting [1]), 45.172 ± 214.92⋆ mm^3 in the data set on HCT-116 colon cancer (setting [4]) and 222.43 ± 113.48⋆ mm^3 with HCT-116 colon cancer (setting [5]). The entries for the “Weight (g) D15” value in the data set with HCT-116 colon cancer (setting [1]), in the data set with HCT-116 colon cancer (setting [4]) and in the data set on HCT-116 colon cancer (setting [5]) were 18.0 ± 1.5 g, 17.2 ± 0.8 g and 17.5 ± 1.1 g, respectively. Further, the “T/C (%) D22” value stood at 0.46% with A2780 ovarian cancer (setting [6]), 39.55% with A2780 ovarian cancer (setting [7]) and 2.11% with A2780 ovarian cancer (setting [8]). Also, the “Tumor volume (mm^3) D22” value in the data set with A2780 ovarian cancer (setting [6]) is on record as 19.83 ± 35.11^⋆ mm^3; in the data set with A2780 ovarian cancer (setting [7]), 1757.57 ± 1306.74^⋆ mm^3; with A2780 ovarian cancer (setting [8]), 92.38 ± 159.91^⋆ mm^3. This compound displayed an IC50 in the data set on MCF-7-ADR of 1.38 µM. In addition, the “inhibitory activity against MCF-7-ADR proliferation (in words)” value with MCF-7-ADR (compared with gemcitabine) is recorded as “strongest anti-tumor activity”.
For the compound `Nc1ccn([C@@H]2O[C@H](CO)[C@@H](O)C2(F)F)c(=O)n1` [gemcitabine], in the data set on A2780 ovarian cancer (setting [3]), the “T/C (%) D22” value worked out at 1.32%. The IC50 in the data set on MCF-7-ADR was over 10 µM.

Source of the values: patent US9944670B2, “Gemcitabine derivatives, compositions comprising same and pharmaceutical applications thereof” (HANGZHOU MINSHENG INSTITUTES FOR PHARMA RESEARCH CO., LTD, priority 2013, dated 2018).
